Literature values, collected in patent US20260108532A1, “COMPOSITION FOR PREVENTING HEART DISEASES CAUSED BY PULMONARY HYPERTENSION AND TREATING HEART, AND FUNCTIONAL FORMULATION COMPRISING SAME” (CARESIDE CO., LTD., priority 2023, published 2026).

Columns and labels:
[1] = system: dogs with subclinical (asymptomatic) CMVI; conditions: at 35 days of administration, compared to placebo administered group
[2] = potassium-sparing diuretic such as spironolactone
[3] = system: dogs with subclinical myxomatous mitral valve disease (MMVD); conditions: compared with placebo-administered group
[4] = dogs; long-term administration

COc1ccc(-c2nc3ccc(C4=NNC(=O)CC4C)cc3[nH]2)cc1 (stereo not shown) [pimobendan, Pimobendan]
LVIDd and LA/Ao on imaging diagnosis [1]: decreased

CC(=O)S[C@@H]1CC2=CC(=O)CC[C@]2(C)[C@H]2CC[C@@]3(C)[C@@H](CC[C@@]34CCC(=O)O4)[C@H]12 [spironolactone, Spironolactone]
diuretic effect as share of the efficacy of the loop diuretic [2]: ~10% | increase in heart size and cardiac biomarker concentration on cardiac ultrasound [3]: much smaller

Cc1cccc(Nc2ccncc2S(=O)(=O)NC(=O)NC(C)C)c1 [torsemide, Torsemide]
ceiling effect [4]: almost no ceiling effect
